BigSolDB 2.1

O=C(O)c1ccccc1Nc1cccc(C(F)(F)F)c1
solubility (mole fraction)
Settings	in DMSO	in ethanol	in ethylene glycol	in isopropanol	in methanol	in n-butanol	in propylene glycol	in sec-butanol	in transcutol	in water
298.2 K	0.226	0.0681	0.00767	0.0962	0.0439	0.119	0.0126	0.121	0.193	5.83e-07
303.2 K	0.241	0.0747	0.00856	0.105	0.048	0.13	0.0139	0.133	0.211	8.01e-07
308.2 K	0.256	0.0857	0.00975	0.116	0.0531	0.142	0.0153	0.144	0.229	1.02e-06
313.2 K	0.27	0.098	0.0107	0.128	0.0577	0.157	0.0167	0.16	0.251	1.28e-06
318.2 K	0.286	0.112	0.012	0.144	0.0629	0.177	0.0181	0.179	0.278	1.6e-06

Settings	solubility (mole fraction)
in PEG-400, 298.2 K	0.0337
in PEG-400, 303.2 K	0.04
in PEG-400, 308.2 K	0.0469
in PEG-400, 313.2 K	0.054
in PEG-400, 318.2 K	0.0616
